From patent US8791267B2, “Biaryl PDE4 inhibitors for treating inflammatory, cardiovascular and CNS disorders” (Decode Genetics EHF, priority 2007, dated 2014)
pIC50: −log10 of the molar value. Structures can show the parent of a compound that is named as a salt.

Assays:
PDE4B = PDE4B (Homo sapiens, UniProt Q07343); test: In-vitro assay for PDE4 enzymes, real-time enzyme-coupled spectrophotometric assay, PDE4B Activity (Table 10); assay type: biochemical; conditions: human PDE4B (hPDE4B), enzyme-coupled spectrophotometric assay; read-out: PDE4B Activity, hPDE4B
PDE4 = PDE4 (Homo sapiens, UniProt Q08499); test: In-vitro assay for PDE4 enzymes, real-time enzyme-coupled spectrophotometric assay (Table 9); assay type: biochemical; conditions: human PDE4D; activity class, Table 9; read-out: hPDE4D
Chain of PDE4 (Q08499 whole entry): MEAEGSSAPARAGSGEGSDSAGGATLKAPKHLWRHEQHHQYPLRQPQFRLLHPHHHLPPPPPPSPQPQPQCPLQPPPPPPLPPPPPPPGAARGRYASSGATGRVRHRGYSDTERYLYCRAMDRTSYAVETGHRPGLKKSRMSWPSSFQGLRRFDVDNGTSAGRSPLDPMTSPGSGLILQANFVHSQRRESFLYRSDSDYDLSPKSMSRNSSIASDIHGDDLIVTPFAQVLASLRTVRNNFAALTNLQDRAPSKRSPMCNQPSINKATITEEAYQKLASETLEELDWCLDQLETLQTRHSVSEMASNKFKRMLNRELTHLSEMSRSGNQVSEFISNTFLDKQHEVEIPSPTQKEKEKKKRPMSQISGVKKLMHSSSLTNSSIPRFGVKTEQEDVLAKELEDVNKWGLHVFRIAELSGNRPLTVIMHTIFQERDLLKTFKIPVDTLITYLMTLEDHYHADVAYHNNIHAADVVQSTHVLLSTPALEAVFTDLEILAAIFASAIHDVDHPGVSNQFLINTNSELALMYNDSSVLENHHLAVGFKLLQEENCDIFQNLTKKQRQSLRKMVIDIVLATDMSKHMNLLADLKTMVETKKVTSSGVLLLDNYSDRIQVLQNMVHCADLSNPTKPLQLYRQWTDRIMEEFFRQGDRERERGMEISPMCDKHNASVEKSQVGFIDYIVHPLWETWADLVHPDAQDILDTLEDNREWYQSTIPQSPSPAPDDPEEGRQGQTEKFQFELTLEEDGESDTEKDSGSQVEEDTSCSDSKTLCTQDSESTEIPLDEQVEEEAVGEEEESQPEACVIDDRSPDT

Chain of PDE4B (Q07343 whole entry): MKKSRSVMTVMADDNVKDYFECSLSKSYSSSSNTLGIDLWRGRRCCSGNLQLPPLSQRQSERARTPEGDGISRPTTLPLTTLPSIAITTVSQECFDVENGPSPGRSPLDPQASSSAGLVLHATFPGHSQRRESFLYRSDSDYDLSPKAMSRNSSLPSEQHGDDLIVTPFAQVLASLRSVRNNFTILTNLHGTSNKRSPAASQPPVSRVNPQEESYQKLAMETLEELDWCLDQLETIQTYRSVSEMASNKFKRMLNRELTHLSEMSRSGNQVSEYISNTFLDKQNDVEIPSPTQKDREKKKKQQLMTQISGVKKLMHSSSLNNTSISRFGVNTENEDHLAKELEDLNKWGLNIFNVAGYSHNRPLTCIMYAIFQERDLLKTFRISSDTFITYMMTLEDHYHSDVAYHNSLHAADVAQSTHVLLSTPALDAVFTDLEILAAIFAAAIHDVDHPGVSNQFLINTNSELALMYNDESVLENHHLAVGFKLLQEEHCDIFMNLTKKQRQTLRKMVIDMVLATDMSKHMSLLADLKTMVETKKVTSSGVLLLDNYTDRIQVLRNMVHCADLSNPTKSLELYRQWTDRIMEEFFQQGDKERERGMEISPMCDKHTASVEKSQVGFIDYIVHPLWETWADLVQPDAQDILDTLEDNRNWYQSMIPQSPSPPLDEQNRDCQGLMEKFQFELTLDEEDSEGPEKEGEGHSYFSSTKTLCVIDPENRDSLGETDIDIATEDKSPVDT

Row | Structure (SMILES) | pIC50 (PDE4B) | pIC50 (PDE4)
1 | COc1ccc(Cc2cnc(N)nc2)c(F)c1-c1cccc(C#N)c1 [P-395, 3′-(2-Amino-pyrimidin-5-ylmethyl)-2′-fluoro-6′-methoxy-biphenyl-3-carbonitrile] | > 5.30 | > 5.30
2 | COc1ccc(Cc2ccc(C(N)=O)nc2)c(F)c1-c1cccc(Cl)c1 [P-401, 5-(3′-Chloro-2-fluoro-6-methoxy-biphenyl-3-ylmethyl)-pyridine-2-carboxylic acid amide] | > 5.30 | > 5.30
3 | COc1ccc(Cc2ccc(-n3cnnn3)cc2)c(F)c1-c1cccc(Cl)c1 [P-404, 1-[4-(3′-chloro-2-fluoro-6-methoxy-biphenyl-3-ylmethyl)-phenyl]-1H-tetrazole] | > 5.30 | > 5.30
4 | CCNC(=O)Nc1ccc(Cc2ccc(OC)c(-c3cccc(C#N)c3)c2F)cn1 [P-405, 1-[5-(3′-Cyano-2-fluoro-6-methoxy-biphenyl-3-ylmethyl)-pyridin-2-yl]-3-ethyl-urea hydrochloride salt] | > 5.30 | > 5.30
5 | COc1ccc(Cc2ccc(NCCO)nc2)c(F)c1-c1cccc(Cl)c1 [P-411] | > 5.30 | > 5.30
6 | COc1ccc(Cc2ccc(C(N)=O)nc2)c(F)c1-c1cccc(C#N)c1 [P-415, 5-(3′-Cyano-2-fluoro-6-methoxy-biphenyl-3-ylmethyl)-pyridine-2-carboxylic acid amide] | > 5.30 | > 5.30
7 | NC(=O)Nc1ccc(Cc2ccc(O)c(-c3cccc(Cl)c3)c2)cc1 [P-421, [4-(3′-Chloro-6-hydroxy-biphenyl-3-ylmethyl)-phenyl]-urea] | > 5.30 | > 5.30
8 | COc1ccc(Cc2ccc(-n3cnnn3)nc2)c(F)c1-c1cccc(Cl)c1 [P-422, 5-(3′-chloro-2-fluoro-6-methoxy-biphenyl-3-ylmethyl)-2-tetrazol-1-yl-pyridine] | > 5.30 | > 5.30
9 | COc1ccc(Cc2ccc3nc(C(N)=O)cn3c2)c(F)c1-c1cccc(Cl)c1 [P-429, 6-(3′-chloro-2-fluoro-6-methoxy-biphenyl-3-ylmethyl)-imidazo[1,2-a]pyridine-2-carboxylic acid amide] | > 5.30 | > 5.30
10 | COc1ccc(Cc2ccc(N3CCN(C(N)=O)CC3)nc2)c(F)c1-c1cccc(Cl)c1 [P-432] | > 5.30 | > 5.30
11 | COc1ccc(Cc2ccnc(CN)c2)c(F)c1-c1cccc(Cl)c1 [P-437, C-[4-(3′-Chloro-2-fluoro-6-methoxy-biphenyl-3-ylmethyl)-pyridin-2-yl]-methylamine] | > 5.30 | > 5.30
12 | CCNC(=O)Nc1ccc(Oc2ccc(OC)c(-c3cccc(C#N)c3)c2F)cn1 [P-440, 1-[5-(3′-Cyano-2-fluoro-6-methoxy-biphenyl-3-yloxy)-pyridin-2-yl]-3-ethyl-urea] | 4.70 to 5.30 | > 5.30
13 | COc1ccc(C(C)(O)c2ccc(NC(N)=O)cc2)c(F)c1-c1cccc(Cl)c1 (centres unmarked) [P-441, {4-[1-(3′-chloro-2-fluoro-6-methoxy-biphenyl-3-yl)-1-hydroxy-ethyl]-phenyl}-urea] | 4.70 to 5.30 | > 5.30
14 | COc1ccc(Sc2ccc(N)cc2)cc1-c1cccc(Cl)c1 [P-447, 4-(3′-Chloro-6-methoxy-biphenyl-3-ylsulfanyl)-phenylaammonium chloride] | > 5.30 | > 5.30
15 | CCNC(=O)Nc1ccc(Sc2ccc(OC)c(-c3cccc(Cl)c3)c2)cc1 [P-448, 1-[4-(3′-Chloro-6-methoxy-biphenyl-3-ylsulfanyl)-phenyl]-3-ethyl urea] | > 5.30 | > 5.30
16 | COc1ccc(Cc2ccc(N)cc2)c(F)c1-c1cccc(Br)c1 [P-453] | > 5.30 | > 5.30
17 | COc1ccc(Cc2ccc(F)nc2)c(F)c1-c1cccc(Cl)c1 [P-456, 5-(3′Chloro-2-fluoro-6-methoxy-biphenyl-3-ylmethyl)-2-fluoro-pyridine] | > 5.30 | > 5.30
18 | COc1ccc(Cc2ccc(CN3CCOC3=O)nc2)c(F)c1-c1cccc(Cl)c1 [P-465, 3-[5-(3′-Chloro-2-fluoro-6-methoxy-biphenyl-3-ylmethyl)-pyridin-2-ylmethyl]-oxazolidin-2-one hydrochloride] | > 5.30 | > 5.30
19 | COc1ccc(Cc2ccc(Nc3nccn3C)cc2)cc1-c1cccc(Cl)c1 [P-467, [4-(3′-Chloro-6-methoxy-biphenyl-3-ylmethyl)-phenyl]-(1-methyl-1H-imidazol-2-yl)-amine] | > 5.30 | > 5.30
20 | NC(=O)Nc1ccc(Cc2ccc(O)c(-c3cccc(Cl)c3)c2F)cc1 [P-468, [4-(3′-Chloro-2-fluoro-6-hydroxy-biphenyl-3-ylmethyl)-phenyl]-urea] | > 5.30 | > 5.30
21 | COc1ccc(Cc2ccc(N)cn2)c(F)c1-c1cccc(Cl)c1 [P-478] | > 5.30 | > 5.30

Results, then the compound that gave them:

Row | pIC50 (PDE4B) | pIC50 (PDE4) | Structure (SMILES)
22 | > 5.30 | > 5.30 | CCNC(=O)Nc1ccc(Cc2ccc(OC)c(-c3cccc(Cl)c3)c2F)c[n+]1[O-] [P-397, 1-[5-(3′-Chloro-2-fluoro-6-methoxy-biphenyl-3-ylmethyl)-1-oxy-pyridin-2-yl]-3-ethyl-urea]
23 | > 5.30 | > 5.30 | CCOC(=O)Nc1ccc(Cc2ccc(OC)c(-c3cccc(C#N)c3)c2F)cn1 [P-398, [5-(3′-Cyano-2-fluoro-6-methoxy-biphenyl-3-ylmethyl)-pyridin-2-yl]-carbamic acid ethyl ester]
24 | > 5.30 | > 5.30 | CCNC(=O)Nc1ncc(Cc2ccc(OC)c(-c3cccc(C#N)c3)c2F)cn1 [P-399, 1-[5-(3′-Cyano-2-fluoro-6-methoxy-biphenyl-3-ylmethyl)-pyrimidin-2-yl]-3-ethyl-urea]
25 | > 5.30 | > 5.30 | CCNC(=O)Nc1ccc(Cc2ccc(OC)c(-c3cccc(C#N)c3)c2)cn1 [P-400, 1-[5-(3′-Cyano-6-methoxy-biphenyl-3-ylmethyl)-pyridin-2-yl]-3-ethyl-urea]
26 | > 5.30 | > 5.30 | COc1ccc(Cc2ccc(Br)nc2)c(F)c1-c1cccc(Cl)c1 [P-402, 2-Bromo-5-(3′-chloro-2-fluoro-6-methoxy-biphenyl-3-ylmethyl)-pyridine]
27 | > 5.30 | > 5.30 | COc1ccc(Cc2cnc(O[C@@H]3CCN(C)C3)nc2)c(F)c1-c1cccc(Cl)c1 [P-406, 5-(3′-Chloro-2-fluoro-6-methoxy-biphenyl-3-ylmethyl)-2-((R)-1-methyl-pyrrolidin-3-yloxy)-pyrimidine]
28 | > 5.30 | > 5.30 | COc1ccc(Cc2ccc(-n3cncn3)nc2)c(F)c1-c1cccc(Cl)c1 [P-412]
29 | > 5.30 | > 5.30 | COc1ccc(Cc2ccc(NC(N)=O)cc2)c(F)c1-c1cccc(C#N)c1 [P-413]
30 | > 5.30 | > 5.30 | COc1ccc(Cc2cnc(N3CC(O)C3)nc2)c(F)c1-c1cccc(C#N)c1 [P-417, 2′-Fluoro-3′-[2-(3-hydroxy-azetidin-1-yl)-pyrimidin-5-ylmethyl]-6′-methoxy-biphenyl-3-carbonitrile]
31 | > 5.30 | > 5.30 | NC(=O)Nc1ccc(Cc2ccc(OC(F)F)c(-c3cccc(Cl)c3)c2)cc1 [P-420]
32 | > 5.30 | > 5.30 | COc1ccc(Cc2ccnc(C#N)c2)c(F)c1-c1cccc(Cl)c1 [P-433, 4-(3′-Chloro-2-fluoro-6-methoxy-biphenyl-3-ylmethyl)-pyridine-2-carbonitrile]
33 | > 5.30 | > 5.30 | COc1ccc(Oc2ccc(N)nc2)c(F)c1-c1cccc(C#N)c1 [P-439, 5-(3′-Cyano-2-fluoro-6-methoxy-biphenyl-3-yloxy)-pyridin-2-yl-ammonium chloride]
34 | 4.70 to 5.30 | > 5.30 | COc1ccc(Cc2ccc3cnc(C(N)=O)n3c2)c(F)c1-c1cccc(Cl)c1 [P-445, 6-(3′-chloro-2-fluoro-6-methoxy-biphenyl-3-ylmethyl)-imidazo[1,5-a]pyridine-3-carboxylic acid amide]
35 | > 5.30 | > 5.30 | O=[N+]([O-])c1cccc(-c2c(O)ccc(Cc3ccc(F)cc3)c2F)c1 [P-451]
36 | > 5.30 | > 5.30 | COc1ccc(Cc2ccc(N3CC(O)C3)nc2)c(F)c1-c1cccc(Cl)c1 [P-457, 1-[5-(3′-Chloro-2-fluoro-6-methoxy-biphenyl-3-ylmethyl)-pyridin-2-yl]-azetidin-3-ol]
37 | > 5.30 | > 5.30 | COc1ccc(Cc2cnc(N(C)CCO)nc2)c(F)c1-c1cccc(Cl)c1 [P-458, 2-{[5-(3′-Chloro-2-fluoro-6-methoxy-biphenyl-3-ylmethyl)-pyrimidin-2-yl]-methyl-amino}-ethanol]
38 | > 5.30 | > 5.30 | CNC(=O)NCc1ccc(Cc2ccc(OC)c(-c3cccc(Cl)c3)c2F)cn1 [P-460, 1-[5-(3′-Chloro-2-fluoro-6-methoxy-biphenyl-3-ylmethyl)-pyridin-2-ylmethyl]-3-methyl-urea hydrochloride]
39 | > 5.30 | > 5.30 | CCN1CCN(Cc2ccc(Cc3ccc(OC)c(-c4cccc(Cl)c4)c3F)cn2)C1=O [P-461, 1-[5-(3′-Chloro-2-fluoro-6-methoxy-biphenyl-3-ylmethyl)-pyridin-2-ylmethyl]-3-ethyl-imidazolidin-2-one hydrochloride]
40 | > 5.30 | > 5.30 | COc1ccc(Cc2ccc(N3CCOC3=O)nc2)c(F)c1-c1cccc(Cl)c1 [P-469, 3-[5-(3′-Chloro-2-fluoro-6-methoxy-biphenyl-3-ylmethyl)-pyridin-2-yl]-oxazolidin-2-one]
41 | > 5.30 | > 5.30 | COc1ccc(Cc2ccc(N3CCN(C)C3=O)nc2)c(F)c1-c1cccc(Cl)c1 [P-470, 1-[5-(3′-Chloro-2-fluoro-6-methoxy-biphenyl-3-ylmethyl)-pyridin-2-yl]-3-methyl-imidazolidin-2-one]
42 | > 5.30 | > 5.30 | COc1ccc(Cc2ccc(NCC(N)=O)nc2)c(F)c1-c1cccc(Cl)c1 [P-471]
43 | > 5.30 | > 5.30 | COc1ccc(Cc2ccc(N(C)C)nc2)c(F)c1-c1cccc(Cl)c1 [P-473, [5-(3′-Chloro-2-fluoro-6-methoxy-biphenyl-3-ylmethyl)-pyridin-2-yl]-dimethyl-amine]
